From patent US11248024B2, “Noxa-derived, cell death-inducing peptide eMTD” (INDUSTRY-ACADEMIC COOPERATION FOUNDATION, CHOSUN UNIVERSITY, priority 2019, dated 2022)
Ends that are not written are not given here.

Assays:
[1] = tested on: mitochondria isolated from livers of BalB/C mice; assay: Mitochondrial swelling, absorbance at 540 nm / TEM; type: biochemical; conditions: for Mitochondrial swelling, relative absorbance at 540 nm: peptides 25 μM, Ca2+ 200 μM, CsA 20 μM
Experimental: First, livers excised from 6-week-old BalB/C mice were immersed in buffer (250 mM mannitol, […], 5 mM HEPES, pH 7.4, 0.1 mM PMSF and 4 rotenone) and completely homogenized using a Teflon Potter-Elvehjem grinder (Sigma). The ground liver was centrifuged at 1000×g for 10 min at 4° C. and the supernatants were centrifuged at 10,000×g for 10 min at 4° C. The pellets thus obtained were suspended in a regeneration buffer (250 mM sucrose, 10 mM HEPES, pH 7.4, 5 mM sodium succinate, 2 mM potassium phosphate, 0.1 mM PMSF, 25 μM EGTA, and 4 rotenone).
The mitochondria thus obtained were treated with 25 μM of eMTD (SEQ ID NO: 1) or eMTDΔ4 (SEQ ID NO: 2), followed by reading absorbance at 540 nm to determine mitochondrial swelling.

HeLa cells = assay: Microscopic observation of morphological change in cells; type: cell-based, human; conditions: 20 μM, 3 min
Experimental: In order to observe morphological changes in cells in detail, the cells were incubated with 20 μM of the peptide eMTDΔ4 (SEQ ID NO: 2) and observed with the aid of a microscope (Leica). The results are depicted in FIG. 2.

## KLNFRQKLLNLISKLF [eMTDΔ4]
[1]; 25 μM, absorbance 540 nm and TEM, FIGS. 6A and 6B
  mitochondrial swelling (in words): induce mitochondrial swelling
[1]; Minute 0
  Mitochondrial swelling, relative absorbance at 540 nm: 100%
[1]; Minute 10
  Mitochondrial swelling, relative absorbance at 540 nm: 79%
[1]; Minute 20
  Mitochondrial swelling, relative absorbance at 540 nm: 74%
[1]; Minute 30
  Mitochondrial swelling, relative absorbance at 540 nm: 70%
[1]; Minute 40
  Mitochondrial swelling, relative absorbance at 540 nm: 68%
[1]; Minute 50
  Mitochondrial swelling, relative absorbance at 540 nm: 66%
[1]; Minute 60
  Mitochondrial swelling, relative absorbance at 540 nm: 65%
HeLa cells
  morphological change in cells: most of the cells were observed to undergo necrosis with the consequent rupture of cell membranes after 3 min
